# What was measured:
# S. aberdeen [1] = assay: Direct binding Salmonella assay (chemiluminescence immunosorbent)
# Method: After 5 hours of culture, a 2 ml aliquot of the sample was removed and SDS was added to a final concentration of 0.5% (w/v). The sample was heated to 100° C. for 5 minutes and allowed to cool. One hundred microlitres of each test sample was added directly to a well of a solid white 96 well high binding microtitre plate (Greiner Bio One) and incubated at 37° C. for 30 minutes. During incubation, the lipid A portion of the LPS binds to the surface of the plate via non-covalent hydrophobic interactions (FIG. 1a (1), FIG. 1b(1)).
# The final concentration of antibody per well was 50 ng. The plate-bound sample (Salmonella LPS/core oligosaccharide) and antibody were incubated in the coated wells for 30 minutes as 37° C. Following incubation, plates were washed three times in wash buffer and pat dried prior to detection (FIG. 1a(2), FIG. 1b(2)).
# When the anti-Salmonella is directly labelled with acridinium ester, plates were placed into a luminometer. 30 μl of trigger solution A and 60 μl of trigger solution B was added to each well of the microtitre plate to initiate light output from conjugated acridinium ester (FIG. 1a(3)). The luminometer settings were as follows:
# When the anti-Salmonella antibody is not labelled, a second binding member, a goat anti-mouse IgG2b conjugate is used. Post column IgG2b was diluted 1:100 in a diluent comprising 3% (w/v) non-fat milk powder and 0.05% (v/v) Tween 20 and 100 ul of this solution was added to each well of the plate (FIG. 1b(3)). Following incubation at 37° C. for 60 minutes the plate was washed four times in wash buffer, dried and read as above (FIG. 1b(4)).
# The wells of an assay plate are coated with standard concentrations of bacteria for 1 hour at 37° C. These standard concentrations are: 10^6, 10^5, 5×10^4, 2.5×10^4, 10^4 and 5×10^3 and blank wells containing 10^6 E. coli. The fractions to be tested are diluted 1:100 in assay buffer and […] is added to each well and incubated at 37° C. for 20 minutes. The wells are then read on the luminometer, as above.
# S. aberdeen [2] = assay: as above; conditions: for signal, direct binding Salmonella assay: conjugate 1:100; for signal, release and detection of core oligosaccharide: 0.1% SDS
structure (smiles),measurement,setting,value
"CCCCCCCCCCCCOS(=O)(=O)[O-].[Na+] [SDS, sodium dodecyl sulphate]","signal, direct binding Salmonella assay","S. aberdeen [1]; 0.5% SDS (second block), conjugate 1:100, 5 × 10^4 S. aberdeen, black and white plates","2,213 ± 170"
same,"signal, release and detection of core oligosaccharide","S. aberdeen [1]; 0.5% SDS, 10^4 bacteria (species not given)",495603 relative light units
same,enhancement of binding between binding member (antibody) and epitope,S. aberdeen [1]; direct assay,≤ 10 fold
same,"signal, direct binding Salmonella assay","S. aberdeen [2]; 0% SDS, 2.5 × 10^4 S. aberdeen, black and white plates","1,617 ± 250"
same,"signal, direct binding Salmonella assay","S. aberdeen [2]; 0% SDS, 5 × 10^3 S. aberdeen, black and white plates",575 ± 120
same,"signal, direct binding Salmonella assay","S. aberdeen [2]; 0% SDS, 5 × 10^4 S. aberdeen, black and white plates","2,027 ± 206"
same,"signal, direct binding Salmonella assay","S. aberdeen [2]; 0% SDS, 10^4 S. aberdeen, black and white plates","1,102 ± 357"
same,"signal, direct binding Salmonella assay","S. aberdeen [2]; 0% SDS, 10^5 S. aberdeen, black and white plates","3,131 ± 121"
same,"signal, direct binding Salmonella assay","S. aberdeen [2]; 0% SDS, 10^6 S. aberdeen, black and white plates","24,566 ± 4,287"
same,"signal, direct binding Salmonella assay","S. aberdeen [2]; 0% SDS, Peptone, black and white plates",643 ± 54
same,"signal, direct binding Salmonella assay","S. aberdeen [2]; 0.1% (w/v) SDS, 2.5 × 10^4 S. aberdeen, white plate, Lucy I","28,622 ± 2,162"
same,"signal, direct binding Salmonella assay","S. aberdeen [2]; 0.1% (w/v) SDS, 5 × 10^3 S. aberdeen, white plate, Lucy I","8,536 ± 1,520"
same,"signal, direct binding Salmonella assay","S. aberdeen [2]; 0.1% (w/v) SDS, 5 × 10^4 S. aberdeen, white plate, Lucy I","51,909 ± 3,036"
same,"signal, direct binding Salmonella assay","S. aberdeen [2]; 0.1% (w/v) SDS, 10^4 S. aberdeen, white plate, Lucy I","11,324 ± 2,770"
same,"signal, direct binding Salmonella assay","S. aberdeen [2]; 0.1% (w/v) SDS, 10^5 S. aberdeen, white plate, Lucy I","143,796 ± 4,297"
same,"signal, direct binding Salmonella assay","S. aberdeen [2]; 0.1% (w/v) SDS, 10^6 S. aberdeen, white plate, Lucy I","356,444 ± 102,877"
same,"signal, direct binding Salmonella assay","S. aberdeen [2]; 0.1% (w/v) SDS, Peptone, white plate, Lucy I","4,288 ± 1.653"
same,"signal, direct binding Salmonella assay","S. aberdeen [2]; 0.1% SDS (first block), 2.5 × 10^4 S. aberdeen, black and white plates","1,277 ± 211"
same,"signal, direct binding Salmonella assay","S. aberdeen [2]; 0.1% SDS (first block), 5 × 10^3 S. aberdeen, black and white plates",591 ± 1
same,"signal, direct binding Salmonella assay","S. aberdeen [2]; 0.1% SDS (first block), 5 × 10^4 S. aberdeen, black and white plates","1,297 ± 4"
same,"signal, direct binding Salmonella assay","S. aberdeen [2]; 0.1% SDS (first block), 10^4 S. aberdeen, black and white plates","1,662 ± 531"
same,"signal, direct binding Salmonella assay","S. aberdeen [2]; 0.1% SDS (first block), 10^5 S. aberdeen, black and white plates","2,386 ± 263"
same,"signal, direct binding Salmonella assay","S. aberdeen [2]; 0.1% SDS (first block), 10^6 S. aberdeen, black and white plates","16,738 ± 1051"
same,"signal, direct binding Salmonella assay","S. aberdeen [2]; 0.1% SDS (first block), Peptone, black and white plates",643 ± 54
same,"signal, direct binding Salmonella assay","S. aberdeen [2]; 0.1% SDS (second block), 2.5 × 10^4 S. aberdeen, black and white plates","1,442 ± 28^"
same,"signal, direct binding Salmonella assay","S. aberdeen [2]; 0.1% SDS (second block), 5 × 10^3 S. aberdeen, black and white plates",678 ± 40
same,"signal, direct binding Salmonella assay","S. aberdeen [2]; 0.1% SDS (second block), 5 × 10^4 S. aberdeen, black and white plates",2321 ± 437
same,"signal, direct binding Salmonella assay","S. aberdeen [2]; 0.1% SDS (second block), 10^4 S. aberdeen, black and white plates",930 ± 21
same,"signal, direct binding Salmonella assay","S. aberdeen [2]; 0.1% SDS (second block), 10^5 S. aberdeen, black and white plates","4,654 ± 636"
same,"signal, direct binding Salmonella assay","S. aberdeen [2]; 0.1% SDS (second block), 10^6 S. aberdeen, black and white plates","28,169 ± 1516"
same,"signal, direct binding Salmonella assay","S. aberdeen [2]; 0.1% SDS (second block), Peptone, black and white plates",503 ± 76
same,"signal, release and detection of core oligosaccharide",S. aberdeen [2]; 10^1 bacteria (species not given),10248 relative light units
same,"signal, release and detection of core oligosaccharide",S. aberdeen [2]; 10^2 bacteria (species not given),9525 relative light units
same,"signal, release and detection of core oligosaccharide",S. aberdeen [2]; 10^3 bacteria (species not given),12375 relative light units
same,"signal, release and detection of core oligosaccharide",S. aberdeen [2]; 10^4 bacteria (species not given),65960 relative light units
same,"signal, release and detection of core oligosaccharide",S. aberdeen [2]; 10^5 bacteria (species not given),717259 relative light units
same,"signal, release and detection of core oligosaccharide",S. aberdeen [2]; 10^6 bacteria (species not given),895811 relative light units
same,"signal, direct binding Salmonella assay","S. aberdeen [2]; 0.2% (w/v) SDS, 2.5 × 10^4 S. aberdeen, white plate, Lucy I","27,339 ± 2,635"
same,"signal, direct binding Salmonella assay","S. aberdeen [2]; 0.2% (w/v) SDS, 5 × 10^3 S. aberdeen, white plate, Lucy I","10,334 ± 2,264"
same,"signal, direct binding Salmonella assay","S. aberdeen [2]; 0.2% (w/v) SDS, 5 × 10^4 S. aberdeen, white plate, Lucy I","75,900 ± 5,798"
same,"signal, direct binding Salmonella assay","S. aberdeen [2]; 0.2% (w/v) SDS, 10^4 S. aberdeen, white plate, Lucy I","11,098 ± 828^"
same,"signal, direct binding Salmonella assay","S. aberdeen [2]; 0.2% (w/v) SDS, 10^5 S. aberdeen, white plate, Lucy I","112,096 ± 3,841"
same,"signal, direct binding Salmonella assay","S. aberdeen [2]; 0.2% (w/v) SDS, 10^6 S. aberdeen, white plate, Lucy I","365,496 ± 12,729"
same,"signal, direct binding Salmonella assay","S. aberdeen [2]; 0.2% (w/v) SDS, Peptone, white plate, Lucy I","3,904 ± 59^"
same,"signal, direct binding Salmonella assay","S. aberdeen [2]; 0.3% SDS, 2.5 × 10^4 S. aberdeen, white plate, Lucy I","38,450 ± 1,411"
same,"signal, direct binding Salmonella assay","S. aberdeen [2]; 0.3% SDS, 5 × 10^3 S. aberdeen, white plate, Lucy I","14,313 ± 2,881"
same,"signal, direct binding Salmonella assay","S. aberdeen [2]; 0.3% SDS, 5 × 10^4 S. aberdeen, white plate, Lucy I","123,881 ± 15,994"
same,"signal, direct binding Salmonella assay","S. aberdeen [2]; 0.3% SDS, 10^4 S. aberdeen, white plate, Lucy I","14,314 ± 617^"
same,"signal, direct binding Salmonella assay","S. aberdeen [2]; 0.3% SDS, 10^5 S. aberdeen, white plate, Lucy I","209,913 ± 40,150"
same,"signal, direct binding Salmonella assay","S. aberdeen [2]; 0.3% SDS, 10^6 S. aberdeen, white plate, Lucy I","352,714 ± 88,260"
same,"signal, direct binding Salmonella assay","S. aberdeen [2]; 0.3% SDS, Peptone, white plate, Lucy I","3,026 ± 473"
same,"signal, direct binding Salmonella assay","S. aberdeen [2]; 0.4% SDS, 2.5 × 10^4 S. aberdeen, white plate, Lucy I","59,399 ± 13,550"
same,"signal, direct binding Salmonella assay","S. aberdeen [2]; 0.4% SDS, 5 × 10^3 S. aberdeen, white plate, Lucy I","25,175 ± 5,025"
same,"signal, direct binding Salmonella assay","S. aberdeen [2]; 0.4% SDS, 5 × 10^4 S. aberdeen, white plate, Lucy I","120,481 ± 16,389"
same,"signal, direct binding Salmonella assay","S. aberdeen [2]; 0.4% SDS, 10^4 S. aberdeen, white plate, Lucy I","29,127 ± 2,516"
same,"signal, direct binding Salmonella assay","S. aberdeen [2]; 0.4% SDS, 10^5 S. aberdeen, white plate, Lucy I","199,287 ± 67,462"
same,"signal, direct binding Salmonella assay","S. aberdeen [2]; 0.4% SDS, 10^6 S. aberdeen, white plate, Lucy I","398,979 ± 44,871"
same,"signal, direct binding Salmonella assay","S. aberdeen [2]; 0.4% SDS, Peptone, white plate, Lucy I","3,499 ± 569"

# Source: patent publication US20110159515A1, “COMPOSITIONS AND METHODS FOR THE RAPID GROWTH AND DETECTION OF MICROORGANISMS” (SOLUS SCIENTIFIC SOLUTIONS LIMITED, priority 2008, published 2011)
